Laboratory results: ChEMBL document CHEMBL6083206, “SLL-1A-16 suppresses proliferation and induces autophagy in non-small-cell lung cancer cells via the AKT/mTOR signaling pathway” (RSC Med Chem, 2024)
pIC50: −log10 of the molar value. Active and inactive are the calls of the source. The rule behind the calls is not given here.

Key:
[1] = Toxicity in Balb/c nude mouse xenografted with human A549 cells assessed as reduction in body weight at 7.5 to 15 mg/kg, ip administered for 14 days; assay type: organism-based; settings: in vivo, 336 h, dose 7.5-15 mg/kg, time 14 day
NCI-H460 [2] = test: Inhibition of Akt/mTOR signalling pathway in human NCI-H460 cells assessed as decrease in c-myc expression by Western blot analysis; assay type: cell-based; settings: dose 10-30 µM
NCI-H460 [3] = test: Antiproliferative activity against human NCI-H460 cells assessed as reduction in cell viability incubated for 48 hrs by CCK8 assay; assay type: functional, cell-based; settings: NCI-H460, 48 h
A549 [4] = test: Cell cycle arrest in human A549 cells assessed as downregulation of cyclin D1 expression at 10 to 30 uM by Western blot analysis; assay type: functional, cell-based; settings: dose 10-30 µM
A549 [5] = test: Antiproliferative activity against human A549 cells assessed as reduction in cell viability incubated for 48 hrs by CCK8 assay; assay type: functional, cell-based; settings: A549, 48 h
NCI-H460 [6] = test: Inhibition of Akt/mTOR signalling pathway in human NCI-H460 cells assessed as decrease in phosphorylated 4EBP1 expression by Western blot analysis; assay type: cell-based; settings: dose 10-30 µM
A549 [7] = test: Inhibition of Akt/mTOR signaling pathway in human A549 cells assessed as decrease in phosphorylated 4EBP1 expression in presence of temsirolimus by Western blot analysis; assay type: cell-based
A549 [8] = test: Induction of apoptosis in human A549 cells assessed as late apoptotic cells at 30 uM incubated for 24 hrs by Annexin V-FITC/PI staining based flow cytometric analysis (reference value: 2.29 %); assay type: functional
NCI-H460 [9] = test: Inhibition of Akt/mTOR signaling pathway in human NCI-H460 cells assessed as decrease in mTOR expression in presence of temsirolimus by Western blot analysis; assay type: cell-based
A549 [10] = test: Inhibition of colony formation in human A549 cells at 10 to 30 uM incubated for 24 hrs by giemsa staining based analysis; assay type: functional, cell-based; settings: dose 10-30 µM
BGC-823 = test: Antiproliferative activity against human BGC-823 cells assessed as inhibition of cell proliferation at 3 to 300 uM incubated for 48 hrs by CCK8 assay; assay type: functional, cell-based; settings: dose 3-300 µM
[11] = system: Gefitinib-resistant A549/G cell; test: Inhibition of Akt/mTOR signaling pathway in human Gefitinib-resistant A549/G cell assessed as decrease in mTOR expression in presence of gefitinib by Western blot analysis; assay type: cell-based
NCI-H460 [12] = test: Inhibition of colony formation in human NCI-H460 cells at 10 to 30 uM incubated for 24 hrs by giemsa staining based analysis; assay type: functional, cell-based; settings: dose 10-30 µM
NCI-H460 [13] = test: Induction of autophagy in human NCI-H460 cells assessed as increase in fluorescence intensity of anti-LC3 incubated for 48 hrs by immunofluorescence staining based analysis; assay type: functional, cell-based; settings: dose 10-30 µM
NCI-H460 [14] = test: Induction of autophagy in human NCI-H460 cells assessed as increase in Atg5 expression at 10 to 30 uM incubated for 24 hrs by Western blot analysis; assay type: functional, cell-based; settings: dose 10-30 µM
[15] = system: Gefitinib-resistant A549/G cell; test: Inhibition of Akt/mTOR signaling pathway in human Gefitinib-resistant A549/G cell assessed as decrease in phosphorylated […] in presence of gefitinib by Western blot analysis; assay type: cell-based
NCI-H460 [16] = test: Inhibition of Akt/mTOR signaling pathway in human NCI-H460 cells assessed as decrease in phosphorylated 4EBP1 expression in presence of temsirolimus by Western blot analysis; assay type: cell-based
A549 [17] = test: Antitumor activity against human A549 cells xenografted in Balb/c nude mouse assessed as reduction in tumor growth rate at 7.5 to 15 mg/kg, ip administered for 14 days; assay type: functional, organism-based; settings: dose 7.5-15 mg/kg, time 14.0 day
A549 [18] = test: Inhibition of Akt/mTOR signalling pathway in human A549 cells assessed as decrease in phosphorylated P70 S6K expression by Western blot analysis; assay type: cell-based; settings: dose 10-30 µM
NCI-H460 [19] = test: Inhibition of Akt/mTOR signalling pathway in human NCI-H460 cells assessed as decrease in phosphorylated PRAS40 expression by Western blot analysis; assay type: cell-based; settings: dose 10-30 µM
A549 [20] = test: Inhibition of Akt/mTOR signalling pathway in human A549 cells assessed as decrease in c-myc expression by Western blot analysis; assay type: cell-based; settings: dose 10-30 µM
NCI-H460 [21] = test: Inhibition of Akt/mTOR signaling pathway in human NCI-H460 cells assessed as decrease in phosphorylated PRAS40 expression in presence of temsirolimus by Western blot analysis; assay type: cell-based
NCI-H460 [22] = test: Induction of apoptosis in human NCI-H460 cells assessed as necrotic cells at 30 uM incubated for 24 hrs by Annexin V-FITC/PI staining based flow cytometric analysis (reference value: 0.68 %); assay type: functional
NCI-H460 [23] = test: Induction of apoptosis in human NCI-H460 cells assessed as late apoptotic cells at 10 uM incubated for 24 hrs by Annexin V-FITC/PI staining based flow cytometric analysis (reference value: 4.15 %); assay type: functional
A549 [24] = test: Induction of apoptosis in human A549 cells assessed as upregulation of Bax expression at 10 to 30 uM by Western blot analysis; assay type: functional, cell-based; settings: dose 10-30 µM
A549 [25] = test: Antiproliferative activity against human A549 cells assessed as inhibition of cell proliferation in presence of temsirolimus by CCK8 assay; assay type: functional, cell-based
NCI-H460 [26] = test: Antiproliferative activity against human NCI-H460 cells assessed as inhibition of cell proliferation in presence of temsirolimus by CCK8 assay; assay type: functional, cell-based
A549 [27] = test: Inhibition of Akt/mTOR signalling pathway in human A549 cells assessed as decrease in phosphorylated 4EBP1 expression by Western blot analysis; assay type: cell-based; settings: dose 10-30 µM
A549 [28] = test: Induction of autophagy in human A549 cells assessed as increase in fluorescence intensity of anti-LC3 incubated for 48 hrs by immunofluorescence staining based analysis; assay type: functional, cell-based; settings: dose 10-30 µM
NCI-H460 [29] = test: Induction of apoptosis in human NCI-H460 cells assessed as early apoptotic cells at 30 uM incubated for 24 hrs by Annexin V-FITC/PI staining based flow cytometric analysis (reference value: 3.22 %); assay type: functional
NCI-H460 [30] = test: Induction of apoptosis in human NCI-H460 cells assessed as late apoptotic cells at 30 uM incubated for 24 hrs by Annexin V-FITC/PI staining based flow cytometric analysis (reference value: 4.15 %); assay type: functional

SMILES: N#C[Se]CCCNC(=O)c1cccnc1
- Activity [1]: Non-toxic
- inhibition (NCI-H460 [2]): Dose-dependent-effect; Inhibitory Ability Of Compound Is Comparable To Temsirolimus
- pIC50 (NCI-H460 [3]): 4.76
- Activity (A549 [4]): Active; G1 Phase Cell Cycle Arrest Observed
- pIC50 (A549 [5]): 4.81
- inhibition (NCI-H460 [6]): Dose-dependent-effect; Inhibitory Ability Of Compound Is Comparable To Temsirolimus
- inhibition (A549 [7]): Active
- Activity (A549 [8]): 14.41%
- inhibition (NCI-H460 [9]): Active
- inhibition (A549 [10]): Active
- Activity (BGC-823): inactive
- inhibition [11]: Active
- inhibition (NCI-H460 [12]): Active
- Activity (NCI-H460 [13]): Dose-dependent-effect
- Activity (NCI-H460 [14]): Active
- inhibition [15]: Active
- inhibition (NCI-H460 [16]): Active
- Activity (A549 [17]): Active; Comparable To 25 Mg/Kg Of Gemcitabine Hydrochloride
- inhibition (A549 [18]): Dose-dependent-effect; Inhibitory Ability Of Compound Is Comparable To Temsirolimus
- inhibition (NCI-H460 [19]): Dose-dependent-effect; Inhibitory Ability Of Compound Is Comparable To Temsirolimus
- inhibition (A549 [20]): Dose-dependent-effect; Inhibitory Ability Of Compound Is Comparable To Temsirolimus
- inhibition (NCI-H460 [21]): Active
- Activity (NCI-H460 [22]): 5.22%
- Activity (NCI-H460 [23]): 8.98%
- Activity (A549 [24]): Active
- Activity (A549 [25]): Active
- Activity (NCI-H460 [26]): Active
- inhibition (A549 [27]): Dose-dependent-effect; Inhibitory Ability Of Compound Is Comparable To Temsirolimus
- Activity (A549 [28]): Dose-dependent-effect
- Activity (NCI-H460 [29]): 6.3%
- Activity (NCI-H460 [30]): 13.81%
